Data from paper PMC12723449, “From Pharmacophore to Warhead: NAD^+‐Targeting Triazoles as Mechanism‐Based Sirtuin Inhibitors” (Angewandte Chemie (International Ed. in English), 2025).

Molecular target: T1, SIRT2 (Homo sapiens, UniProt Q8IXJ6)
T1 construct: For assay experiments, strep-tagged human SIRT1134−747 and SIRT256-356 were expressed and purified as previously; Strep-tag; made in house; host or cells: E. coli BL21 Star (DE3)
T1 sequence (Q8IXJ6 56-356 limits assumed): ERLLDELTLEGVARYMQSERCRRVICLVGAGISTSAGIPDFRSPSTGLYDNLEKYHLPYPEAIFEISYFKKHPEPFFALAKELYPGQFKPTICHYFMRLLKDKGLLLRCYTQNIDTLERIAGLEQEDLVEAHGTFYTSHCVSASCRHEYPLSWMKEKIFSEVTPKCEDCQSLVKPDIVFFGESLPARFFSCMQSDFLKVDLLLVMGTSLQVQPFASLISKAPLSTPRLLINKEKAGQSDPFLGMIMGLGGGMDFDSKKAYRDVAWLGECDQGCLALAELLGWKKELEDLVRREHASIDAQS
Assay: Fluorescence polarization assay (FPA)
Type: binding
Settings: with versus without NAD+
Experimental: Protein expression and purification for assays and crystallization
For assay experiments, strep-tagged human SIRT1134−747 and SIRT256-356 were expressed and purified as previously described.[2,4] Briefly, chemically competent E. coli BL21 Star (DE3) cells were transformed with pET30S-hSIRT1134−747 or pET30S-hSIRT256−356 plasmids. Cell cultures were grown in 2× YT medium (5 g/L NaCl, 16 g/L tryptone, 10 g/L yeast extract) supplemented with 50 μg/mL kanamycin at 37 °C reaching an OD600 of 0.6 − 0.7.
Protein expression of SIRT1134−747 and SIRT256−356 was induced with 1 mM IPTG (isopropyl β- D-1-thiogalactopyranoside), followed by incubation for 16 h at 20 °C. […]
Protein purity and identity were confirmed by SDS-PAGE and protein concentration was determined using the BCA assay with BSA as a standard. […] […]
A solution of 10 µL SIRT2 (final concentration of 6.0 µM) and SYPRO Orange (5x, Sigma-Aldrich, Germany) in assay buffer (25 mM Tris-HCl, 150 mM NaCl, 1 mM DTT, pH 8.0) was mixed with 10 µL of compound and incubated at 25 °C and 350 rpm for 5 min. […] Fluorescence intensity was recorded during a temperature gradient of 1°C per 20 s from 25 to 95°C using a real-time PCR machine (C1000 Touch™ Thermal Cycler, CFX96™ Real-Time System, BioRad, USA). […]

Row | SMILES | change of affinity upon NAD+ addition (FP)
1 | COCCn1cc(COc2cccc(Cc3cnc(NC(=O)CSc4nc(C)cc(C)n4)s3)c2)nn1 [Compound 1, reference compound] | increased affinities upon NAD+ addition
2 | Cc1cc(C)nc(SCC(=O)Nc2ncc(Cc3cccc(OCc4c[nH]nn4)c3)s2)n1 [Compound 7] | increased affinities upon NAD+ addition
